Experimental data reported in patent publication US20240132492A1, “PYRIDOPYRIMIDINE-BASED COMPOUND AND APPLICATION THEREOF” (JINAN UNIVERSITY, priority 2021, published 2024).

What was measured:
Format in all cases: cell-based
[1] = system: H1975OR; experiment: CCK-8 tumor cell proliferation, H1975OR; settings: H1975OR cells (Osimertinib resistant), 72 hours
Method: (§1) Cell line: Non-small cell lung cancer H1975-OR cell line, which is an Osimertinib resistant H1975 cell line, and could be obtained through low dose gradual addition culture. Specific method: H1975 cells were spread in a 10 cm culture dish at a convergence rate of 60-70%, added 50 nM of Osimertinib to the culture medium. After the cell state stabilized, the concentration of Osimertinib was gradually double to 3 μM.
(§2) Tumor cells (see Table 2 to Table 5) were inoculated in 96-well plates in complete culture medium (2000-3000 cells/well). After overnight incubation, the compounds with different concentrations (0.000508 μM-10 μM) were used to treat the cells separately for 72 hours. CCK-8 (Cell Counting Kit 8, Dojindo Laboratories, Kumamoto, Japan) experiment was used to evaluate cell proliferation. GraphPad Prism 5.0 software (La Jolla, CA) was used to calculate the half-maximal inhibitory concentration (IC50) values by fitting the concentration response curve. Each IC50 value was represented as an average value±SD.

[2] = system: H1975; experiment: CCK-8 tumor cell proliferation, H1975; settings: Homo sapiens, NCI-H1975, H1975 cells, 72 hours
Method: as §2

[3] = molecular target: AKT3 (Homo sapiens, UniProt Q9Y243); experiment: Western Blot, degradation of AKT3 protein in H1975-OR cells; parameters: endogenous in cells; host or cells: H1975-OR (osimertinib-resistant H1975); settings: 1000 nM, 24 hours, maximum degradation rate
AKT3, sequence (Q9Y243 whole entry): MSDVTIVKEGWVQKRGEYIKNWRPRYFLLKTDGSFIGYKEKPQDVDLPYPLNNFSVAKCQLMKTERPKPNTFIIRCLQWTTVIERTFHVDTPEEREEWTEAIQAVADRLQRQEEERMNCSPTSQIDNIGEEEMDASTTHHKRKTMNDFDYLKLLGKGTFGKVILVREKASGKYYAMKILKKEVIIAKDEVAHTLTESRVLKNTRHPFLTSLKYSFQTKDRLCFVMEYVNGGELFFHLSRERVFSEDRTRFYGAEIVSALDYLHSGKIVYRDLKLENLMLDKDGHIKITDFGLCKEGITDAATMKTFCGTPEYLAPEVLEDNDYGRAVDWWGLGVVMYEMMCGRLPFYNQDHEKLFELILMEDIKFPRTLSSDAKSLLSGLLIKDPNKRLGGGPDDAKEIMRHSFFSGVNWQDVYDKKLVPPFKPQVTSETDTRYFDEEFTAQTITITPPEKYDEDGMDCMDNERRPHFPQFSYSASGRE
Method: as §1
(§3) Conventional Western Blot (immunoblotting) was used for detection, as follows: a certain number of H1975-OR cells were planted on a 96 well plate, adherent cultured in an incubator overnight, and added a certain concentration of compound to act for 24 hours. 1×SDS lysis buffer with protease and phosphatase inhibitors was used to lyse cells. Cell lysates were separated by SDS-PAGE and transferred to PVDF membrane. Then, at room temperature, the PCDF membrane was taken out and immersed in a sealing solution (5% BSA TBS solution containing 0.5% Tween-20) for sealing treatment for 1 hour, and then incubated with a specific primary antibody at 4° C. overnight. The imprints were washed with TBST and incubated with horseradish peroxidase (HRP) labeled secondary antibodies at room temperature for 2 hours. Finally, ECL plus fluorescence detection reagent (Thermo Scientific, Waltham, MA) was used for protein development, and the Amersham Imager 600 system (GE, America) was used for photography. The detection results were processed using ImageJ software to obtain the grayscale value G (Density).

[4] = molecular target: T1, AKT1 (Homo sapiens, UniProt P31749); experiment: Western Blot, degradation of AKT1 protein in H1975-OR cells; settings: 1000 nM, 24 hours, maximum degradation rate
T1 construct: AKT1, AKT2, and AKT3 proteins in H1975-OR cells; endogenous in cells; host or cells: H1975-OR (osimertinib-resistant H1975)
T1 sequence (P31749 whole entry): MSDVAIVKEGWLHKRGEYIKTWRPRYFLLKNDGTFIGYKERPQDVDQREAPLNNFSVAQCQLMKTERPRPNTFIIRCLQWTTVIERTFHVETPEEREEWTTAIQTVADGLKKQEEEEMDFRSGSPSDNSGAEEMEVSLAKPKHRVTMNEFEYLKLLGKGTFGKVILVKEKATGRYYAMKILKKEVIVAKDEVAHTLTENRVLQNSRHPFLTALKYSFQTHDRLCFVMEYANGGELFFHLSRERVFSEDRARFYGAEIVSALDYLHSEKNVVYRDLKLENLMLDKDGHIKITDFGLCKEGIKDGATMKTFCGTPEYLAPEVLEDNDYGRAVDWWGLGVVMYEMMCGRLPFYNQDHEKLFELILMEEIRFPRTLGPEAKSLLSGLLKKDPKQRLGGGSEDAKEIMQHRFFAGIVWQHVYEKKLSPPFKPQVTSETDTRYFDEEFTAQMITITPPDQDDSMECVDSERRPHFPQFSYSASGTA
Method: as §1, §3

[5] = molecular target: T2, AKT2 (Homo sapiens, UniProt P31751); experiment: Western Blot, degradation of AKT2 protein in H1975-OR cells; settings: 1000 nM, 24 hours, maximum degradation rate
T2 construct: AKT1, AKT2, and AKT3 proteins in H1975-OR cells; endogenous in cells; host or cells: H1975-OR (osimertinib-resistant H1975)
T2 sequence (P31751 whole entry): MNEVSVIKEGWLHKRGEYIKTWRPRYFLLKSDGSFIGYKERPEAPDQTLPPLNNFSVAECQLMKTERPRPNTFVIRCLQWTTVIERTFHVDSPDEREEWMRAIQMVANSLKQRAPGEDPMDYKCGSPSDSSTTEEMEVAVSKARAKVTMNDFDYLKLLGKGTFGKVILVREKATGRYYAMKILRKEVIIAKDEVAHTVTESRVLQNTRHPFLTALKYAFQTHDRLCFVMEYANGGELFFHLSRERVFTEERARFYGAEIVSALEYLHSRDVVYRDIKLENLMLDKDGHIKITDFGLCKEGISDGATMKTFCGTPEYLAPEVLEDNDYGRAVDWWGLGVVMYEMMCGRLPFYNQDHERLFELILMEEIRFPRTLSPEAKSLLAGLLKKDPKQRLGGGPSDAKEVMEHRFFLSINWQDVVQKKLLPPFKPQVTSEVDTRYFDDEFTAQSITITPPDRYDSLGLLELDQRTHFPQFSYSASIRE
Method: as §1, §3

SMILES | IC50 [1] | IC50 [2] | Dmax at 1 µM [3] | Dmax at 1 µM [4] | Dmax at 1 µM [5]
COc1cc(N2CCN(CCCCCCCCNC(=O)CC(C)(C)C)CC2)ccc1Nc1ncc2c(C)cc(=O)n(-c3cccc(NC(=O)C4CC4)c3)c2n1 [ZX-HYT-33] | 0.44 ± 0.14 µM | 2.31 ± 0.52 µM | 55.3% | 0% | 43.7%
COc1cc(N2CCN(CCCCCCCCNC(=O)C3C[C@H]4CC[C@@H]3C4)CC2)ccc1Nc1ncc2c(C)cc(=O)n(-c3cccc(NC(=O)C4CC4)c3)c2n1 (some centres unmarked) [ZX-HYT-61] | 0.103 ± 0.0592 µM | 0.0738 ± 0.0456 µM | 15.9% | 14.2% | 31.5%
COc1cc(N2CCN(CCCCCCCCCCCCNC(=O)CC34CC5CC(CC(C5)C3)C4)CC2)ccc1Nc1ncc2c(C)cc(=O)n(-c3cccc(N(C)C)c3)c2n1 [ZX-HYT-43, 2-((3R, 5R, 7R)-adamantan-1-yl)-N-(12-(4-(4-((8-(3-(dimethylamino)phenyl)-5-methyl-7-oxy-7,8-dihydropyridino [2,3-d]pyrimidin-2-yl)amino)-3-methoxyphenyl)piperazin-1-yl)dodecyl) acetamide] | 0.172 ± 0.0204 µM | 0.257 ± 0.0423 µM | 37.9% | 57.5% | 30.5%
COc1cc(N2CCN(CCCCCCCCN)CC2)ccc1Nc1ncc2c(C)cc(=O)n(-c3cccc(NC(=O)C4CC4)c3)c2n1 [ZX-HYT-31] | 0.217 ± 0.0367 µM | 0.145 ± 0.101 µM | 55.5% | 0% | 30.6%
COc1cc(N2CCN(CCCCCCCCCCCCNC(=O)CC34CC5CC(CC(C5)C3)C4)CC2)ccc1Nc1ncc2c(C)cc(=O)n(-c3cccc(NCC4CNC4)c3)c2n1 [ZX-HYT-44, 2-((3R, 5R, 7R)-adamantan-1-yl)-N-(12-(4-(4-((8-(3-((azacyclobutane-3-ylmethyl)amino)phenyl)-5-methyl-7-oxy-7,8-dihydropyridino [2,3-d]pyrimidin-2-yl)amino)-3-methoxyphenyl)piperazin-1-yl)dodecanyl) acetamide] | 8.09 ± 0.432 µM | 5.39 ± 0.293 µM | 40.1% | 22.4% | 23.6%
COc1cc(N2CCN(CCCCCCCCCCCCNC(=O)CC34CC5CC(CC(C5)C3)C4)CC2)ccc1Nc1ncc2c(C)cc(=O)n(-c3ccccc3)c2n1 [ZX-HYT-36, 2-((3R, 5R, 7R)-adamantan-1-yl)-N-(12-(4-(3-methoxy-4-((5-methyl-7-oxy-8-phenyl-7,8))-dihydropyridino [2,3-d]pyrimidin-2-yl)amino)phenyl) piperazin-1-yl) dodecyl) acetamide] | 0.107 ± 0.008 µM | 0.219 ± 0.0782 µM | 12.3% | 0% | 0%
COc1cc(N2CCN(CCCCCCCCNC(=O)CC34CC5CC(CC(C5)C3)C4)CC2)ccc1Nc1ncc2c(C)cc(=O)n(-c3cccc(NC(=O)C(C)(C)C)c3)c2n1 [ZX-HYT-48, N-(3-(2-((4-(4-(8-(2-((3R, 5R, 7R)-adamantan-1-yl)acetylamino)octyl)piperazin-1-yl)-2-methoxyphenyl))amino)-5-methyl-7-oxypyridino [2,3-d]pyrimidin-8 (7H)-yl) phenyl) neopentanamide] | 0.105 ± 0.052 µM | 0.187 ± 0.0357 µM | 60.6% | 0% | 34.2%
CCCCCCCCN1CCN(c2ccc(Nc3ncc4c(C)cc(=O)n(-c5cccc(NC(=O)C6CC6)c5)c4n3)c(OC)c2)CC1 [ZX-HYT-30, N-(3-(2-((2-methoxy-4-(4-octylpiperazin-1-yl)phenyl)amino)-5-methyl-7-oxypyridino [2,3-d]pyrimidin-8 (7H)-yl)phenyl) cyclopropane formamide] | 8.84 ± 2.17 µM | > 10 µM | 51.9% | 40.5% | 37.1%

The remaining compounds from weak to strong by IC50 [1], led by results:

IC50 [1] | IC50 [2] | Dmax at 1 µM [3] | Dmax at 1 µM [4] | Dmax at 1 µM [5] | SMILES
1.67 ± 0.69 µM | 7.84 ± 1.35 µM | 76.3% | 0% | 30.2% | COc1cc(OCCOCCCCCCCCCCCCNC(=O)CC23CC4CC(CC(C4)C2)C3)ccc1Nc1ncc2c(C)cc(=O)n(-c3cccc(NC(=O)C4CC4)c3)c2n1 [ZX-HYT-27, N-(3-(2-(4-(2-((12-(2-(((3R, 5R, 7R)-adamantan-1-yl)acetylamino)dodecyl)oxy)ethoxy)-2-methoxyphenyl)amino)-5-methyl-7-oxypyridino [2,3-d]pyrimidin-8 (7H)-yl)phenyl) cyclopropaneformamide]
0.32 ± 0.04 µM | 2.59 ± 0.2 µM | 43.4% | 42.2% | 39.1% | COc1cc(N2CCN(CCCCCCCCNC(=O)C34CC5CC(CC(C5)C3)C4)CC2)ccc1Nc1ncc2c(C)cc(=O)n(-c3cccc(NC(=O)C4CC4)c3)c2n1 [ZX-HYT-35, (3R,5R,7R)—N-(8-(4-(4-((8-(3-(cyclopropaneformamide)phenyl)-5-methyl-7-oxy-7,8-dihydropyridino [2,3-d-dipyrimidin-2-yl)amino)-3-methoxyphenyl)piperazin-1-yl)octyl)adamantan-1-carboxylamide]
0.21 ± 0.04 µM | 1.02 ± 0.24 µM | 45.2% | 0% | 24.3% | COc1cc(N2CCN(CCCCCCCCNC(=O)[C@@]34CC5C[C@@](C)(C[C@@](C)(C5)C3)C4)CC2)ccc1Nc1ncc2c(C)cc(=O)n(-c3cccc(NC(=O)C4CC4)c3)c2n1 [ZX-HYT-32]
0.107 ± 0.0194 µM | 0.135 ± 0.0948 µM | 18.9% | 13% | 0% | COc1cc(N2CCN(CCCCCCCCNC(=O)C3C[C@H]4C=C[C@@H]3C4)CC2)ccc1Nc1ncc2c(C)cc(=O)n(-c3cccc(NC(=O)C4CC4)c3)c2n1 (some centres unmarked) [ZX-HYT-60]
0.0939 ± 0.004 µM | 0.121 ± 0.0449 µM | 38.9% | 30.3% | 24.7% | COc1cc(N2CCN(CCCCCCCCNC(=O)C[C@]34CC5C[C@@](C)(C[C@@](C)(C5)C3)C4)CC2)ccc1Nc1ncc2c(C)cc(=O)n(-c3cccc(NC(=O)C4CC4)c3)c2n1 [ZX-HYT-59, N-(3-(2-((4-(4-(8-(2-((1S, 3R, 5S, 7R)-3,5-dimethyladamantan-1-yl)acetamido)octyl)piperazin-1-yl)-2-methoxyphenyl)amino)-5-methyl-7-oxypyridino [2,3-d]pyrimidin-8 (7H)-yl)phenyl) cyclopropanilamide]
0.0609 ± 0.014 µM | 0.0864 ± 0.0296 µM | 53% | 32% | 30.7% | COc1cc(N2CCN(CCCCCCCCCCCCNC(=O)CC34CC5CC(CC(C5)C3)C4)CC2)ccc1Nc1ncc2c(C)cc(=O)n(-c3cccc(OCC4CC4)c3)c2n1 [ZX-HYT-40, 2-((3R, 5R, 7R)-adamantan-1-yl)-N-(12-(4-(4-((8-(3-(cyclopropylmethoxy)phenyl)-5-methyl-7-oxo-) 7,8-dihydropyridino [2,3-d]pyrimidin-2-yl)amino)-3-methoxyphenyl)piperazin-1-yl) dodecyl) acetamide]
0.0346 µM | 0.0958 ± 0.0126 µM | 61.6% | 0% | 26.1% | CCC(=O)Nc1cccc(-n2c(=O)cc(C)c3cnc(Nc4ccc(N5CCN(CCCCCCCCNC(=O)CC67CC8CC(CC(C8)C6)C7)CC5)cc4OC)nc32)c1 [ZX-HYT-49, N-(3-(2-((4-(4-(8-(2-((3R, 5R, 7R)-adamantan-1-yl)acetylamino)octyl)piperazin-1-yl)-2-methoxyphenyl))amino)-5-methyl-7-oxypyridino [2,3-d]pyrimidin-8 (7H)-yl) phenyl) propionamide]
0.0224 ± 0.0127 µM | 0.0365 ± 0.0012 µM | 67.5% | 0% | 0% | COc1cc(N2CCN(CCCCCCCCNC(=O)CC34CC5CC(CC(C5)C3)C4)CC2)ccc1Nc1ncc2c(C)cc(=O)n(-c3cccc(NC(=O)C4CC4)c3)c2n1 [ZX-HYT-47, N-(3-(2-((4-(4-(8-(2-((3R, 5R, 7R)-adamantan-1-yl)acetylamino)octyl)piperazin-1-yl)-2-methoxyphenyl))amino)-5-methyl-7-oxypyridino [2,3-d]pyrimidin-8 (7H)-yl) phenyl) cyclopropane formamide]
